According to US20230159527A1, “COMPOUNDS AS BCL-2 INHIBITORS” (Fochon Pharmaceuticals, Ltd., priority 2020, published 2023):
pIC50: −log10 of the molar value.

Assays:
Format in all cases: cell-based
RS4;11 cells = experiment: Cell proliferation assay, RS4;11 cells (MTS, 72 h); conditions: Homo sapiens, RS4;11 cell proliferation
In short: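 RS4;11 cells (30000/well, RPMI-1640 plus 10% FBS) treated with compounds at 1.5-10000 nM for 72 h at 37° C, 5% CO2. Viability by MTS (2 h), absorbance at 490 nm with 650 nm reference; IC50 from proliferation inhibition.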

DoHH2 cells = experiment: Cell proliferation assay, DoHH2 cells (MTS, 120 h); conditions: Homo sapiens, DOHH-2
In short: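 DoHH2 cells in RPMI-1640 with 10% FBS were plated at 5000/well and rested 4 h. They were then exposed to compound at nine final concentrations (10000 to 1.5 nM) for 120 h at 37 °C. Viability was read by MTS (2 h, A490) and IC50 derived by curve fitting.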

Toledo cells = experiment: Cell proliferation assay, Toledo cells (MTS, 72 h); conditions: Homo sapiens, Toledo cells, MTS, read-out: Toledo IC50
In short: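 Toledo cells (30000/well, RPMI-1640 with 10% FBS) were preincubated for 4 h. They were then exposed to nine compound concentrations from 10000 to 1.5 nM for 72 h at 37 °C, 5% CO2. MTS was added for 2 h and absorbance read at 490 nm to give IC50.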

pIC50 (RS4;11 cells): ≥ 9.00
SMILES: CC(C)c1ccccc1[C@@H]1COCCN1C1CC2(CCN(c3ccc(C(=O)NS(=O)(=O)c4cnc(NC[C@H]5CC[C@@](C)(O)CC5)c([N+](=O)[O-])c4)c(Oc4cnc5[nH]ccc5c4)c3)CC2)C1 (single isomer, unassigned) [Example A-56a, 2-((1H-pyrrolo[2,3-b]pyridin-5-yl)oxy)-N-((6-((((1s,4s)-4-hydroxy-4-methylcyclohexyl)methyl)amino)-5-nitropyridin-3-yl)sulfonyl)-4-(2-((R or S)-3-(2-isopropylphenyl)morpho-lino)-7-azaspiro[3.5]nonan-7-yl) benzamide]
pIC50 (DoHH2 cells): ≥ 9.00
pIC50 (Toledo cells): 9.00
